Test results taken from ChEMBL document CHEMBL5257019, “An Overview of Severe Acute Respiratory Syndrome-Coronavirus (SARS-CoV) 3CL Protease Inhibitors: Peptidomimetics and Small Molecule Chemotherapy” (J Med Chem, 2016).

Experiment: Inhibition of SARS-CoV-2 3CL protease Q189A mutant by FRET assay
Parameters: species or system Severe acute respiratory syndrome coronavirus 2

O=c1c(O[C@@H]2OC(O)[C@@H](O)[C@H](O)[C@@H]2O)c(-c2ccc(O)c(O)c2)oc2cc(O)cc(O)c12 (stereo partly specified)
IC50: 24.1 µM
